Source: patent US12583895B2, “Polypeptides for restoring endothelial function and methods of use thereof” (Vanderbilt University, priority 2019, dated 2026)
Non-standard residues stand in square brackets, D forms with d. No end group written: not given here. pS = N[C@@H](COP(=O)(O)O)C(=O)O

System: rat aorta
Experiment: Endothelial-dependent relaxation of rat aorta after endoplasmic reticulum stress (tunicamycin) injury
Assay type: cell-based
Details: NiPp 100 and 500 μM, 2 hours, room temperature
Method: (§1) Freshly isolated rat aorta was treated with tunicamycin (TM) to induce injury in the absence or presence of NiPp (100 and 500 μM) for 2 hours at room temperature. To determine the effect of injury on endothelial function, phenylephrine (PE)-precontracted tissues were treated with carbachol (CCH; 10^−8 to 10^−5M) and the percent relaxation was determined as a change to the maximal PE-induced contraction. Data are reported as mean responses±standard deviation. n=6. *p<0.05, two-way ANOVA.
Muscle bath studies. Tissue rings were suspended in bicarbonate buffer in the muscle bath at 37° C., equilibrated with 95% O2/5% CO2 at 37° C. for 1 hour. Rings were manually stretched to 3 grams of tension, followed by a resting tension of 1 gram for an additional 1 hour to produce a maximal force-tension relationship. […] Relaxation was calculated as percent change in stress compared to the maximal PE-induced contraction (set as 100%).
as §1, with “Data are reported as mean responses±standard deviation. n=6. *p<0.05, two-way ANOVA.” left out

YARAAARQARASPAARRA(pS)AILPG (YARAAARQARASPAARRA[pS]AILPG) [NiPp, Cell-permeant phosphopeptide mimetic of Niban: transduction domain … conjugated to the region surrounding serine 602 of Niban]
endothelial function (percent relaxation to carbachol) after tunicamycin injury: restored
